# Tested on: colon tumor cells re-implanted in secondary recipients
# Assay: Secondary transplant of GPR49 mAb+irinotecan treated tumor cells
# Type: in vivo, mouse
# Details: 140 day follow-up
# Text: Isolated tumor cells from control or GPR49 mAb+irinotecan treated tumors from the in vivo study outlined in Example 3 were harvested, pooled, dissociated and re-implanted in a limiting dilution secondary transplant assay to measure cancer stem cell frequency. For each treatment group, 8 mice were implanted with 10, 30, 100 cells. […]
structure (smiles),measurement,value
CCc1c2c(nc3ccc(OC(=O)N4CCC(N5CCCCC5)CC4)cc13)-c1cc3c(c(=O)n1C2)COC(=O)[C@]3(O)CC [Irinotecan],mice with tumors,7/8
